Data: patent publication US20150045328A1, “DISUBSTITUTED ARYL OXY DERIVATIVES AS SPHINGOSINE-1 PHOSPHATE RECEPTORS MODULATORS” (Allergan, Inc., priority 2013, published 2015)

Target: T1, human S1P1 receptor (Homo sapiens, UniProt P21453)
T1 construct: expressed in transfected cells; membranes used
Assay: GTP γ35S binding assay for S1P1 activity
Format: biochemical
Settings: activity potency, S1P1 receptor from GTP γ35S binding; membranes of cells stably expressing the S1P1 receptor
Experimental: Compounds were synthesized and tested for S1P1 activity using the GTP γ^35S binding assay. These compounds may be assessed for their ability to activate or block activation of the human S1P1 receptor in cells stably expressing the S1P1 receptor.
GTP γ^35S binding was measured in the medium containing (mM) HEPES 25, pH 7.4, MgCl2 10, NaCl 100, dithiothreitol 0.5, digitonin 0.003%, 0.2 nM GTP γ^35S, and 5 μg membrane protein in a volume of 150 μl. Test compounds were included in the concentration range from 0.08 to 5,000 nM unless indicated otherwise. Membranes were incubated with 100 μM 5′-adenylylimidodiphosphate for 30 min, and subsequently with 10 μM GDP for 10 min on ice. Drug solutions and membrane were mixed, and then reactions were initiated by adding GTP γ^35S and continued for 30 min at 25° C. Reaction mixtures were filtered over Whatman GF/B filters under vacuum, and washed three times with 3 mL of ice-cold buffer (HEPES 25, pH7.4, MgCl2 10 and NaCl 100). Filters were dried and mixed with scintillant, and counted for ^35S activity using a β-counter. Agonist-induced GTP γ^35S binding was obtained by subtracting that in the absence of agonist. Binding data were analyzed using a non-linear regression method. In case of antagonist assay, the reaction mixture contained 10 nM […] in the presence of test antagonist at concentrations ranging from 0.08 to 5000 nM.

T1 sequence (P21453 whole entry): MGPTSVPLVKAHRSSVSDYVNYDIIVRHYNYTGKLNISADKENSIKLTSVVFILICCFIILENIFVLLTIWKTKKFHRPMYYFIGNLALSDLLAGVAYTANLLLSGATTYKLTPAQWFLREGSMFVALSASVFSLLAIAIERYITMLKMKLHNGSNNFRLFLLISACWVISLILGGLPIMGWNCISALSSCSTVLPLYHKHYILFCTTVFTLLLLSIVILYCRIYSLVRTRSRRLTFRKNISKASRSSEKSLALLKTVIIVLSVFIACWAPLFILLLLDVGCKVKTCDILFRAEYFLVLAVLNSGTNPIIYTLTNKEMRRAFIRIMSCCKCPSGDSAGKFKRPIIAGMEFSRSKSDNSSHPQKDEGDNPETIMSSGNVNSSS

SMILES | EC50
CCCCC(CCCOc1ccc(CNCCCP(=O)(O)O)cc1)Cc1ccc(C)c(C)c1 (centres unmarked) [Compound 2, {3-[(4-{[4-(3,4-Dimethylbenzyl)octyl]oxy}benzyl)amino]propyl}phosphonic acid] | 12.9 nM
CCC(CCCOc1ccc(CNCCCP(=O)(O)O)cc1)Cc1ccc(C)c(C)c1 (centres unmarked) [Compound 6, {3-[(4-{[4-(3,4-Dimethylbenzyl)hexyl]oxy}benzyl)amino]propyl}phosphonic acid] | 21.4 nM
CCCCCC(CCCOc1c(C)cc(CNCCCP(=O)(O)O)cc1C)Cc1ccc(C)c(C)c1 (centres unmarked) [Compound 23, {3-[(4-{[4-(3,4-Dimethylbenzyl)nonyl]oxy}-3,5-dimethylbenzyl)amino]propyl}phosphonic acid] | 11.9 nM
CCCCC(CCCOc1ccc(CNCCC(=O)O)cc1C)Cc1ccc(C)c(C)c1 (centres unmarked) [Compound 14, 3-[(4-{[4-(3,4-Dimethylbenzyl)octyl]oxy}-3-methylbenzyl)amino]propanoic acid] | 6.02 nM
CCCCC(CCCOc1ccc(CNCCCP(=O)(O)O)cc1Br)Cc1ccc(C)c(C)c1 (centres unmarked) [Compound 15, {3-[(3-Bromo-4-{[4-(3,4-dimethylbenzyl)octyl]oxy}benzyl)amino]propyl}phosphonic acid] | 2.29 nM
CCCCC(CCCOc1ccc(CNCCC(=O)O)cc1Cl)Cc1ccc(C)c(C)c1 (centres unmarked) [Compound 18, 3-[(3-Chloro-4-{[4-(3,4-dimethylbenzyl)octyl]oxy}benzyl)amino]propanoic acid] | 1.25 nM
CCCC(CCCOc1ccc(CNCCC(=O)O)cc1)Cc1ccc(C)c(C)c1 (centres unmarked) [Compound 5, 3-[(4-{[4-(3,4-Dimethylbenzyl)heptyl]oxy}benzyl)amino]propanoic acid] | 4.68 nM
CCCCCC(CCCOc1ccc(CNCCCP(=O)(O)O)cc1Cl)Cc1ccc(C)c(C)c1 (centres unmarked) [Compound 25, {3-[(3-Chloro-4-{[4-(3,4-dimethylbenzyl)nonyl]oxy}benzyl)amino]propyl}phosphonic acid] | 4.83 nM
CCCCCC(CCCOc1ccc(CNCCCP(=O)(O)O)cc1)Cc1ccc(C)c(C)c1 (centres unmarked) [Compound 1, {3-[(4-{[4-(3,4-Dimethylbenzyl)nonyl]oxy}benzyl)amino]propyl}phosphonic acid] | 5.18 nM
CCCCC(CCCOc1c(F)cc(CNCCCP(=O)(O)O)cc1OC)Cc1ccc(C)c(C)c1 (centres unmarked) [Compound 19, {3-[(4-{[4-(3,4-dimethylbenzyl)octyl]oxy}-3-fluoro-5-methoxybenzyl)amino]propyl}phosphonic acid] | 0.33 nM
CCCC(CCCOc1c(C)cc(CNCCC(=O)O)cc1C)Cc1ccc(C)c(C)c1 (centres unmarked) [Compound 30, 3-[(4-{[4-(3,4-Dimethylbenzyl)heptyl]oxy}-3,5-dimethylbenzyl)amino]propanoic acid] | 27.1 nM
CCCC(CCCOc1ccc(CNCCCP(=O)(O)O)cc1Cl)Cc1ccc(C)c(C)c1 (centres unmarked) [Compound 27, {3-[(3-chloro-4-{[4-(3,4-dimethylbenzyl)heptyl]oxy}benzyl)amino]propyl}phosphonic acid] | 10.9 nM
CCCCCC(CCCOc1ccc(CNCCC(=O)O)cc1Cl)Cc1ccc(C)c(C)c1 (centres unmarked) [Compound 26, 3-[(3-Chloro-4-{[4-(3,4-dimethylbenzyl)nonyl]oxy}benzyl)amino]propanoic acid] | 11.8 nM
CCCCC(CCCOc1ccc(CNCCCP(=O)(O)O)cc1Cl)Cc1ccc(C)c(C)c1 (centres unmarked) [Compound 17, {3-[(3-Chloro-4-{[4-(3,4-dimethylbenzyl)octyl]oxy}benzyl)amino]propyl}phosphonic acid] | 1.34 nM
CCCCC(CCCOc1ccc(CNCCCP(=O)(O)O)cc1C)Cc1ccc(C)c(C)c1 (centres unmarked) [Compound 13, {3-[(4-{[4-(3,4-Dimethylbenzyl)octyl]oxy}-3-methylbenzyl)amino]propyl}phosphonic acid] | 6.54 nM
CCCC(CCCOc1ccc(CNCCCP(=O)(O)O)cc1)Cc1ccc(C)c(C)c1 (centres unmarked) [Compound 4, {3-[(4-{[4-(3,4-Dimethylbenzyl)heptyl]oxy}benzyl)amino]propyl}phosphonic acid] | 120 nM
CCCCC(CCCOc1ccc(CNCCCP(=O)(O)O)cc1F)Cc1ccc(C)c(C)c1 (centres unmarked) [Compound 21, {3-[(4-{[4-(3,4-Dimethylbenzyl)octyl]oxy}-3-fluorobenzyl)amino]propyl}phosphonic acid] | 2.35 nM
CCC(CCCOc1ccc(CNCCC(=O)O)cc1)Cc1ccc(C)c(C)c1 (centres unmarked) [Compound 7, 3-[(4-{[4-(3,4-Dimethylbenzyl)hexyl]oxy}benzyl)amino]propanoic acid] | 11.4 nM
CCCC(CCCOc1c(C)cc(CNCCCP(=O)(O)O)cc1C)Cc1ccc(C)c(C)c1 (centres unmarked) [Compound 29, {3-[(4-{[4-(3,4-Dimethylbenzyl)heptyl]oxy}-3,5-dimethylbenzyl)amino]propyl}phosphonic acid] | 328 nM
CCCCC(CCCOc1ccc(CNCCC(=O)O)cc1F)Cc1ccc(C)c(C)c1 (centres unmarked) [Compound 22, 3-[(4-{[4-(3,4-Dimethylbenzyl)octyl]oxy}-3-fluorobenzyl)amino]propanoic acid] | 15.7 nM
CCCCC(CCCOc1c(C)cc(CNCCC(=O)O)cc1C)Cc1ccc(C)c(C)c1 (centres unmarked) [Compound 12, 3-[(4-{[4-(3,4-dimethylbenzyl)octyl]oxy}-3,5-dimethylbenzyl)amino]propanoic acid] | 9.84 nM
CCCCC(CCCOc1ccc(CNCCC(=O)O)cc1)Cc1ccc(C)c(C)c1 (centres unmarked) [Compound 3, 3-[(4-{[4-(3,4-Dimethylbenzyl)octyl]oxy}benzyl)amino]propanoic acid] | 5 nM
CCCCC(CCCOc1ccc(CNCCC(=O)O)cc1Br)Cc1ccc(C)c(C)c1 (centres unmarked) [Compound 16, 3-[(3-Bromo-4-{[4-(3,4-dimethylbenzyl)octyl]oxy}benzyl)amino]propanoic acid] | 4.19 nM
CCCC(CCCOc1ccc(CNCCCP(=O)(O)O)cc1C)Cc1ccc(C)c(C)c1 (centres unmarked) [Compound 31, {3-[(4-{[4-(3,4-Dimethylbenzyl)heptyl]oxy}-3-methylbenzyl)amino]propyl}phosphonic acid] | 7.89 nM
CCCC(CCCOc1ccc(CNCCC(=O)O)cc1Cl)Cc1ccc(C)c(C)c1 (centres unmarked) [Compound 28, 3-[(3-Chloro-4-{[4-(3,4-dimethylbenzyl)heptyl]oxy}benzyl)amino]propanoic acid] | 54 nM
CCCCCC(CCCOc1ccc(CNCCC(=O)O)cc1)Cc1ccc(C)c(C)c1 (centres unmarked) [Compound 10, 3-[(4-{[4-(3,4-Dimethylbenzyl)nonyl]oxy}benzyl)amino]propanoic acid] | 7.46 nM
CCCCC(CCCOc1c(F)cc(CNCCC(=O)O)cc1OC)Cc1ccc(C)c(C)c1 (centres unmarked) [Compound 20, 3-[(4-{[4-(3,4-Dimethylbenzyl)octyl]oxy}-3-fluoro-5-methoxybenzyl)amino]propanoic acid] | 2.7 nM
CCCC(CCCOc1ccc(CNCCC(=O)O)cc1C)Cc1ccc(C)c(C)c1 (centres unmarked) [Compound 32, 3-[(4-{[4-(3,4-Dimethylbenzyl)heptyl]oxy}-3-methylbenzyl)amino]propanoic acid] | 35.2 nM
CCCCC(CCCOc1c(C)cc(CNCCCP(=O)(O)O)cc1C)Cc1ccc(C)c(C)c1 (centres unmarked) [Compound 11, {3-[(4-{[4-(3,4-Dimethylbenzyl)octyl]oxy}-3,5-dimethylbenzyl)amino]propyl}phosphonic acid] | 18.9 nM
